For 33 compounds, IC50 results are on record in US10501479B2, “Benzenesulfonyl-asymmetric ureas and medical uses thereof” (HELSINN HEALTHCARE SA, priority 2016, dated 2019).

Where only a bound is given, the exact number is not on record here.

This test deals with T1, GHSR-1a (HEK293/GHSR1a cell line) (Homo sapiens, UniProt Q92847).
T1 construct: expressed in transfected cells; host or cells: HEK293/GHSR1a cell line
T1 sequence (Q92847 whole entry): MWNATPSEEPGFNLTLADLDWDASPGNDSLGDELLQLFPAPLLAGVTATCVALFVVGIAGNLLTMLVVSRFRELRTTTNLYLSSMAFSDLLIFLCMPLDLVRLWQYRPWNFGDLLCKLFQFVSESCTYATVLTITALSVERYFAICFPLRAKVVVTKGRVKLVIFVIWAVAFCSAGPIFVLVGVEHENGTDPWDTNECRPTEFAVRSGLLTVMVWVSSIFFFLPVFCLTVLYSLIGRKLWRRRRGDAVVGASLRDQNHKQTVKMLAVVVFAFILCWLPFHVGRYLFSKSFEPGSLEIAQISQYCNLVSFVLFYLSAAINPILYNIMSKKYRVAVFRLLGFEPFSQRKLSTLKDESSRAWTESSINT
Put plainly: Ghrelin antagonist potency (IC50) with calcium FLIPR assay, ghrelin 10 nM. The note with it: ghrelin antagonist potency, read-out: IC50 (Activity). Format: cell-based. On the procedure: Evaluation of Ghrelin Agonist (EC50) and Antagonist Potency (IC50) with Calcium FLIPR Assay:
The intracellular calcium assay was carried out in a 384-well format FLIPR™ (Molecular Device) HEK293/GHSR1a cell line. Cells were seeded 24 hr prior to the experiments at an optimal density per well. Preincubation with selected calcium dye lasted for 30-60 min at room temperature or 37° C. Test compounds, dissolved in DMSO, were added at the appropriate time and incubated for 15 min followed by the addition of ghrelin with FlexStation or FLIPR. Relative fluorescence was monitored by the FLIPR™ Molecular Device. EC50 and IC50 values were estimated from dose-response data using GraphPad Prism software. To check for GHSR-1a agonism, the compound was added at t=20 sec. and the calcium response was followed for 2 minutes. To check for GHSR-1a antagonism, the compound and Ghrelin (10 nM) were added to the cells at t=20 sec. and the calcium response was measured for 2 minutes. The potency of the antagonist was calculated by its ability to reduce the ghrelin response. Dose-response curves were made for relevant antagonists.
For the compound `C[C@H](NC(=O)N(C)c1ccc(S(=O)(=O)Nc2ccc(CC(C)(C)N)cc2)cc1)c1ccc(-c2cnccn2)c(Cl)c1Cl` [H0942, (S)-N-(4-(2-amino-2-methylpropyl)phenyl)-4-(3-(1-(2,3-dichloro-4-(pyrazin-2-yl)phenyl)ethyl)-1-methylureido) benzenesulfonamide], the IC50 was 2.04 µM.

With `COc1ccc([C@H](C)NC(=O)Nc2ccc(S(=O)(=O)Nc3ccccc3)cc2)c(Cl)c1Cl` [H0950, (S)-4-(3-(1-(2,3-dichloro-4-methoxyphenyl)ethyl)ureido)-N-phenylbenzenesulfonamide], the IC50 was found to be 20.8 µM. Consider `COc1ccc([C@H](C)NC(=O)Nc2ccc(S(=O)(=O)Nc3ccc(C)cc3)cc2)c(Cl)c1Cl` [H0953, (S)-4-(3-(1-(2,3-dichloro-4-methoxyphenyl)ethyl)ureido)-N-(p-tolyl)benzenesulfonamide], for which the IC50 is > 30 µM.

As for `CC(=O)N(C)S(=O)(=O)c1ccc(NC(=O)N[C@@H](C)c2ccc(-c3cnccn3)c(Cl)c2Cl)cc1` [H0954, (S)-N-((4-(3-(1-(2,3-dichloro-4-(pyrazin-2-yl)phenyl)ethyl)ureido)phenyl)sulfonyl)-N-methylacetamide], the IC50 is > 30 µM. Regarding `Cc1ccc(CS(=O)(=O)c2ccc(NC(=O)N[C@@H](C)c3ccc(-c4cnccn4)c(Cl)c3Cl)cc2)cc1` [H0963, (S)-1-(1-(2,3-dichloro-4-(pyrazin-2-yl)phenyl)ethyl)-3-(4-((4-methylbenzyl)sulfonyl)phenyl)urea], the IC50 was > 30 µM. As for `C[C@H](NC(=O)Nc1ccc(S(=O)(=O)Nc2ccccc2)cc1)c1cccc(Cl)c1Cl` [H0965, (S)-4-(3-(1-(2,3-dichlorophenyl)ethyl)ureido)-N-phenylbenzenesulfonamide], the figure is > 30 µM; as for `Cc1ccc(NS(=O)(=O)c2ccc(NC(=O)N[C@@H](C)c3cccc(Cl)c3Cl)cc2)cc1` [H0966, (S)-4-(3-(1-(2,3-dichlorophenyl)ethyl)ureido)-N-(p-tolyl)benzenesulfonamide], 6.58 µM; as for `COc1ccc(C(C)(C)NC(=O)Nc2ccc(S(=O)(=O)Nc3ccc(CC(C)(C)N)cc3)cc2)c(Cl)c1Cl` [H0975, N-(4-(2-amino-2-methylpropyl)phenyl)-4-(3-(2-(2,3-dichloro-4-methoxyphenyl)propan-2-yl)ureido)benzenesulfonamide], 0.0095 µM. For `CN(C)C(C)(C)Cc1ccc(CS(=O)(=O)c2ccc(NC(=O)NCc3cccc(Cl)c3Cl)cc2)cc1` [H0981, 1-(2,3-dichlorobenzyl)-3-(4-((4-(2-(dimethylamino)-2-methylpropyl)benzyl)sulfonyl)phenyl)urea], the IC50 is 0.0095 µM. As for `COc1ccc([C@H](C)NC(=O)Nc2ccc(S(=O)(=O)Nc3ccc4[nH]ccc4c3)cc2)c(Cl)c1Cl` [H0990, (S)-4-(3-(1-(2,3-dichloro-4-methoxyphenyl)ethyl)ureido)-N-(1H-indol-5-yl) benzenesulfonamide], the figure is 0.823 µM; as for `C[C@H](NC(=O)Nc1ccc(S(=O)(=O)Nc2ccc3c(c2)CCCN3)cc1)c1cccc(Cl)c1Cl` [H1003, (S)-4-(3-(1-(2,3-dichlorophenyl)ethyl)ureido)-N-(1,2,3,4-tetrahydroquinolin-6-yl)benzenesulfonamide], 2.02 µM; as for `COc1ccc([C@H](C)NC(=O)Nc2ccc(S(=O)(=O)Nc3ccc4c(c3)CCCN4)cc2)c(Cl)c1Cl` [H1008, (S)-4-(3-(1-(2,3-dichloro-4-methoxyphenyl)ethyl)ureido)-N-(1,2,3,4-tetrahydroquinolin-6-yl)benzenesulfonamide], 6.38 µM. To `COc1ccc([C@H](C)NC(=O)Nc2ccc(S(=O)(=O)Cc3ccc4c(c3)CCN(S(C)(=O)=O)C4)cc2)c(Cl)c1Cl` [H1026, (S)-1-(1-(2,3-dichloro-4-methoxyphenyl)ethyl)-3-(4-(((2-(methylsulfonyl)-1,2,3,4-tetrahydroisoquinolin-6-yl)methyl)sulfonyl)phenyl)urea] belongs 14.9 µM; to `COc1ccc([C@H](C)NC(=O)Nc2ccc(S(=O)(=O)Nc3ccc4c(c3)CCN(S(C)(=O)=O)C4)cc2)c(Cl)c1Cl` [H1033, (S)-4-(3-(1-(2,3-dichloro-4-methoxyphenyl)ethyl)ureido)-N-(2-(methylsulfonyl)-1,2,3,4-tetrahydroisoquinolin-6-yl)benzenesulfonamide], 3.02 µM. `C[C@H](NC(=O)Nc1ccc(S(=O)(=O)Cc2ccc3c(c2)NCC3)cc1)c1cccc(Cl)c1Cl` [H1045, (S)-1-(1-(2,3-dichlorophenyl)ethyl)-3-(4-((indolin-6-ylmethyl)sulfonyl)phenyl)urea]: the IC50 was determined as 2.74 µM.

As to `O=C(NCc1cccc(Cl)c1Cl)Nc1ccc(S(=O)(=O)Cc2ccc3c(c2)NCC3)cc1` [H1046, 1-(2,3-dichlorobenzyl)-3-(4-((indolin-6-ylmethyl)sulfonyl)phenyl)urea], the IC50 was 1.99 µM. Consider `O=C(NCc1cccc(Cl)c1Cl)Nc1ccc(S(=O)(=O)Cc2ccc3c(c2)CCN3)cc1` [H1048, 1-(2,3-dichlorobenzyl)-3-(4-((indolin-5-ylmethyl)sulfonyl)phenyl)urea], for which the IC50 came out at 16.8 µM. To `C[C@H](NC(=O)Nc1ccc(S(=O)(=O)NCCC2CCNCC2)cc1)c1cccc(Cl)c1Cl` [H1052, (S)-4-(3-(1-(2,3-dichlorophenyl)ethyl)ureido)-N-(2-(piperidin-4-yl)ethyl)benzenesulfonamide] belongs 0.467 µM; to `COC(=O)c1ccc(CS(=O)(=O)c2ccc(NC(=O)N[C@@H](C)c3cccc(Cl)c3Cl)cc2)cc1` [H1058, methyl (S)-4-(((4-(3-(1-(2,3-dichlorophenyl)ethyl)ureido)phenyl)sulfonyl)methyl)benzoate], 20 µM. To `C[C@H](NC(=O)Nc1ccc(S(=O)(=O)Cc2ccc(C(=O)O)cc2)cc1)c1cccc(Cl)c1Cl` [H1059] belongs > 30 µM; to `COC(=O)c1ccc(NS(=O)(=O)c2ccc(NC(=O)N[C@@H](C)c3cccc(Cl)c3Cl)cc2)cc1` [H1061, methyl (S)-4-((4-(3-(1-(2,3-dichlorophenyl)ethyl)ureido)phenyl)sulfonamido)benzoate], 2.87 µM. Regarding `C[C@H](NC(=O)Nc1ccc(S(=O)(=O)Cc2ccc(-c3cccnc3)cc2)cc1)c1cccc(Cl)c1Cl` [H1070, (S)-1-(1-(2,3-dichlorophenyl)ethyl)-3-(4-((4-(pyridin-3-yl)benzyl)sulfonyl)phenyl)urea], the IC50 was determined as 5.29 µM. As for `C[C@H](NC(=O)Nc1ccc(S(=O)(=O)Cc2ccc(C(N)=O)cc2)cc1)c1cccc(Cl)c1Cl` [H1073, (S)-4-(((4-(3-(1-(2,3-dichlorophenyl)ethyl)ureido)phenyl)sulfonyl)methyl)benzamide], the figure is > 30 µM; as for `COC(=O)Cc1ccc(NS(=O)(=O)c2ccc(NC(=O)N[C@@H](C)c3cccc(Cl)c3Cl)cc2)cc1` [H1075, methyl (S)-2-(4-((4-(3-(1-(2,3-dichlorophenyl)ethyl)ureido)phenyl)sulfonamido)phenyl)acetate], 3.02 µM; as for `C[C@H](NC(=O)Nc1ccc(S(=O)(=O)CC2CC2)cc1)c1cccc(Cl)c1Cl` [H1078, (S)-1-(4-((cyclopropylmethyl)sulfonyl)phenyl)-3-(1-(2,3-dichlorophenyl)ethyl)urea], 3.58 µM. To `C[C@H](NC(=O)Nc1ccc(S(=O)(=O)C(C)(C)c2ccc3c(c2)CCNC3)cc1)c1cccc(Cl)c1Cl` [H1081, (S)-1-(1-(2,3-dichlorophenyl)ethyl)-3-(4-((2-(1,2,3,4-tetrahydroisoquinolin-6-yl)propan-2-yl)sulfonyl)phenyl)urea] belongs 1.24 µM.

For the compound `COc1cccc(CS(=O)(=O)c2ccc(NC(=O)N[C@@H](C)c3cccc(Cl)c3Cl)cc2)c1` [H1082, (S)-1-(1-(2,3-dichlorophenyl)ethyl)-3-(4-((3-methoxybenzyl)sulfonyl)phenyl)urea], the IC50 is > 30 µM. As for `C[C@H](NC(=O)Nc1ccc(S(=O)(=O)Cc2cccc(O)c2)cc1)c1cccc(Cl)c1Cl` [H1084, (S)-1-(1-(2,3-dichlorophenyl)ethyl)-3-(4-((3-hydroxybenzyl)sulfonyl)phenyl)urea], the figure is 3.5 µM. Take `COC(=O)c1cccc(CS(=O)(=O)c2ccc(NC(=O)N[C@@H](C)c3cccc(Cl)c3Cl)cc2)c1` [H1087, methyl (S)-3-(((4-(3-(1-(2,3-dichlorophenyl)ethyl)ureido)phenyl)sulfonyl)methyl)benzoate]: the IC50 came out at 8.18 µM. In the case of `C[C@H](NC(=O)Nc1ccc(S(=O)(=O)Nc2ccc(CCO)cc2)cc1)c1ccccc1Cl` [H1095, (S)-4-(3-(1-(2-chlorophenyl)ethyl)ureido)-N-(4-(2-hydroxyethyl)phenyl) benzenesulfonamide], the IC50 stood at 1.43 µM. As to `C[C@H](NC(=O)Nc1ccc(S(=O)(=O)CCN2CCOCC2)cc1)c1cccc(Cl)c1Cl` [H1096, (S)-1-(1-(2,3-dichlorophenyl)ethyl)-3-(4-((2-morpholinoethyl)sulfonyl)phenyl)urea], the IC50 was ≥ 30 µM. With `C[C@H](NC(=O)Nc1ccc(S(=O)(=O)Cc2ccc(C#N)cc2)cc1)c1cccc(Cl)c1Cl` [H1101, (S)-1-(4-((4-cyanobenzyl)sulfonyl)phenyl)-3-(1-(2,3-dichlorophenyl)ethyl)urea], the half-inhibitory concentration (IC50) is ≥ 30 µM.

Take `C[C@H](NC(=O)Nc1ccc(S(=O)(=O)Nc2ccc(-c3ncc[nH]3)cc2)cc1)c1cccc(Cl)c1Cl` [H1110, (S)-N-(4-(1H-imidazol-2-yl)phenyl)-4-(3-(1-(2,3-dichlorophenyl)ethyl)ureido) benzenesulfonamide]: the IC50 came out at 0.95 µM.

Usually IC50 stands for the concentration that gives 50% inhibition.
